Our source for the inhibition and Ki values is ChEMBL document CHEMBL1255512, “Pyrazolo[1,5-a]pyrimidine acetamides: 4-Phenyl alkyl ether derivatives as potent ligands for the 18 kDa translocator protein (TSPO)” (Bioorg Med Chem Lett, 2010).

Test [1] addresses 5-hydroxytryptamine receptor 5A (Homo sapiens) (UniProt P47898). As to the kind of experiment: Inhibition of 5-HT5A receptor at 10 uM.
For test [2], the target named is Mu-type opioid receptor (Homo sapiens) (UniProt P35372). As to the kind of experiment: Inhibition of mu opioid receptor at 10 uM.
Test [3] concerns the target T1, 5-hydroxytryptamine receptor 2C (Homo sapiens) (UniProt P28335).
T1 sequence (whole entry): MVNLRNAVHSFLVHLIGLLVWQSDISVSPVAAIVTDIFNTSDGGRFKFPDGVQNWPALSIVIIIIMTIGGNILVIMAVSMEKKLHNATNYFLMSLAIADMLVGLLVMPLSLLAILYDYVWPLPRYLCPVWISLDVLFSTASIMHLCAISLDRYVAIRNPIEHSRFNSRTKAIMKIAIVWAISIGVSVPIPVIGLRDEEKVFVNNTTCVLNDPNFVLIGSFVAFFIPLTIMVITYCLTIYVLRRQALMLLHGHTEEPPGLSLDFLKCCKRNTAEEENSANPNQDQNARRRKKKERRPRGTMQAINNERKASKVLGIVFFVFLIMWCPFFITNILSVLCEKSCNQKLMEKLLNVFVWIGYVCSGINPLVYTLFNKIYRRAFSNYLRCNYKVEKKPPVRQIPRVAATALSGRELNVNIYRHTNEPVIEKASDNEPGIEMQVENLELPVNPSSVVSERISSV
Description: Inhibition of 5-HT2C receptor at 10 uM.

The target in test [4] is Histamine H1 receptor (Homo sapiens) (UniProt P35367). As to the kind of experiment: Inhibition of H1 receptor at 10 uM.
Test [5] has as its target D(1A) dopamine receptor (Homo sapiens) (UniProt P21728). As to the kind of experiment: Inhibition of D1 dopamine receptor at 10 uM.
Test [6] addresses T2, 5-hydroxytryptamine receptor 1A (Homo sapiens) (UniProt P08908).
T2 sequence (whole entry): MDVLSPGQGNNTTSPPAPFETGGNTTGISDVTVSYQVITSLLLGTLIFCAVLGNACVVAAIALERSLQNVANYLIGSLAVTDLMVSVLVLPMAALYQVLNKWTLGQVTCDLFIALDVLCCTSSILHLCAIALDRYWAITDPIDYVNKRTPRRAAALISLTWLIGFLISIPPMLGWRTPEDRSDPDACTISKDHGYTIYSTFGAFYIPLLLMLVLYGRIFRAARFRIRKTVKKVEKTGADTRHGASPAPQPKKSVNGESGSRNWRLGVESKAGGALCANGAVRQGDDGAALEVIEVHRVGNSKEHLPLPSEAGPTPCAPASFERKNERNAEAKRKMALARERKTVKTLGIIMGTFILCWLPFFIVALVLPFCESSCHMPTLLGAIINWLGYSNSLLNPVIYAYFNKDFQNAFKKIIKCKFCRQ
Description: Inhibition of 5-HT1A receptor at 10 uM.

For test [7], the target named is Sodium-dependent noradrenaline transporter (Homo sapiens) (UniProt P23975). Description: Inhibition of norepinephrine receptor at 10 uM.
Test [8] addresses Muscarinic acetylcholine receptor M3 (Homo sapiens) (UniProt P20309). Description: Inhibition of M3 muscarinic receptor at 10 uM.
For test [9], the target named is D(2) dopamine receptor (Homo sapiens) (UniProt P14416). As to the kind of experiment: Inhibition of D2 dopamine receptor at 10 uM.
For test [10], the target named is 5-hydroxytryptamine receptor 1B (Homo sapiens, UniProt P28222). Description: Inhibition of 5-HT1B receptor.
Test [11] deals with T3, Muscarinic acetylcholine receptor M5 (Homo sapiens) (UniProt P08912).
T3 sequence (whole entry): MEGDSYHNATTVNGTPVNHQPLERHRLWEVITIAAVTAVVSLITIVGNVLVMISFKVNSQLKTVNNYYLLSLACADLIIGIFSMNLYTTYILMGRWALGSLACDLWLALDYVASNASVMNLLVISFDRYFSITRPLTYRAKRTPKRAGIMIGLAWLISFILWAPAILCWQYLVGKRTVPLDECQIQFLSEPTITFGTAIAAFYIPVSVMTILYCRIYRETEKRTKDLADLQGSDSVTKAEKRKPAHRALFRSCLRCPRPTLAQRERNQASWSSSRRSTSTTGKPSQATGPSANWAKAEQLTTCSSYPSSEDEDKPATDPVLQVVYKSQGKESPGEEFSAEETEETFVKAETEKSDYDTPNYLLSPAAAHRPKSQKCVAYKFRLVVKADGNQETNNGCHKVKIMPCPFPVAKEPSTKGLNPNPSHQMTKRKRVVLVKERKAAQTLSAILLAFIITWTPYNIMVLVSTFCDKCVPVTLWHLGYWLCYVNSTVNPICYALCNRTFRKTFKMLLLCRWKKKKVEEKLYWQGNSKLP
As to the kind of experiment: Inhibition of M5 muscarinic receptor at 10 uM.

Test [12] concerns the target D(1B) dopamine receptor (Homo sapiens) (UniProt P21918). Description: Inhibition of D5 dopamine receptor at 10 uM.
For test [13], the target named is Beta-3 adrenergic receptor (Homo sapiens) (UniProt P13945). As to the kind of experiment: Inhibition of beta3 adrenergic receptor at 10 uM.
A short description of test [14]: Displacement of [3H]Ro151788 from CBR in rat […]. It counts as tissue-based. (In general: Displacement assays read how much labelled ligand stays bound in the presence of the test substance.)
The target of test [15] is Beta-1 adrenergic receptor (Homo sapiens) (UniProt P08588). As to the kind of experiment: Inhibition of beta-1 adrenergic receptor at 10 uM.
Test [16] concerns the target Histamine H3 receptor (Homo sapiens) (UniProt Q9Y5N1). Description: Inhibition of H3 receptor at 10 uM.
The target of test [17] is T4, Muscarinic acetylcholine receptor M4 (Homo sapiens) (UniProt P08173).
T4 sequence (whole entry): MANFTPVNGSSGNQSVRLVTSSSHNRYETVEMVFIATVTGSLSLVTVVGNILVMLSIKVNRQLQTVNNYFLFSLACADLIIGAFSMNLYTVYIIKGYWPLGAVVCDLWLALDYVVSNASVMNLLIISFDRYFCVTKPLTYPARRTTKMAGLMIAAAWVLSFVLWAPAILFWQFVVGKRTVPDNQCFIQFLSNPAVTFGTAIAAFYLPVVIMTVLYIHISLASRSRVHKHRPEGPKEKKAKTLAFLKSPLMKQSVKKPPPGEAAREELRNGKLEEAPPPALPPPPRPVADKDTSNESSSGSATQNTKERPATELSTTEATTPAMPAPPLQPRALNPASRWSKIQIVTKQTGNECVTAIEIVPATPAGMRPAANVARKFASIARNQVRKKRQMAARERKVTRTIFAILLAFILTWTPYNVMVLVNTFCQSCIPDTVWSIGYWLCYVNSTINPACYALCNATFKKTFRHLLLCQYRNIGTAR
Description: Inhibition of M4 muscarinic receptor at 10 uM.

Test [18] deals with D(3) dopamine receptor (Homo sapiens) (UniProt P35462). Description: Inhibition of D3 dopamine receptor at 10 uM.
Test [19] deals with 5-hydroxytryptamine receptor 1E (Homo sapiens) (UniProt P28566). Description: Inhibition of 5HT1E receptor at 10 uM.
For test [20], the target named is Sodium-dependent dopamine transporter (Homo sapiens) (UniProt Q01959). As to the kind of experiment: Inhibition of dopamine transporter at 10 uM.
The target of test [21] is Histamine H4 receptor (Homo sapiens) (UniProt Q9H3N8). As to the kind of experiment: Inhibition of H4 receptor at 10 uM.
The target of test [22] is Delta-type opioid receptor (Homo sapiens, UniProt P41143). Description: Inhibition of delta opioid receptor at 10 uM.

Some results are limits rather than exact numbers.

Sequence of 5-hydroxytryptamine receptor 5A (Homo sapiens) (P47898 whole entry): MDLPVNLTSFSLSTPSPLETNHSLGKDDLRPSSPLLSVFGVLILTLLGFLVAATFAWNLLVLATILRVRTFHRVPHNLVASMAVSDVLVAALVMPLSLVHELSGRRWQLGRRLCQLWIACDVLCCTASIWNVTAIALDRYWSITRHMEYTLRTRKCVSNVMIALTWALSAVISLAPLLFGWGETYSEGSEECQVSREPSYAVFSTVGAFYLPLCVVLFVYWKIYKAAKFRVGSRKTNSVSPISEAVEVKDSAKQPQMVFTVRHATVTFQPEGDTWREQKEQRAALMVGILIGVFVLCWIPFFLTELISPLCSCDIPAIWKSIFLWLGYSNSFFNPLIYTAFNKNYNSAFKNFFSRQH
Sequence of D(1A) dopamine receptor (Homo sapiens) (P21728 whole entry): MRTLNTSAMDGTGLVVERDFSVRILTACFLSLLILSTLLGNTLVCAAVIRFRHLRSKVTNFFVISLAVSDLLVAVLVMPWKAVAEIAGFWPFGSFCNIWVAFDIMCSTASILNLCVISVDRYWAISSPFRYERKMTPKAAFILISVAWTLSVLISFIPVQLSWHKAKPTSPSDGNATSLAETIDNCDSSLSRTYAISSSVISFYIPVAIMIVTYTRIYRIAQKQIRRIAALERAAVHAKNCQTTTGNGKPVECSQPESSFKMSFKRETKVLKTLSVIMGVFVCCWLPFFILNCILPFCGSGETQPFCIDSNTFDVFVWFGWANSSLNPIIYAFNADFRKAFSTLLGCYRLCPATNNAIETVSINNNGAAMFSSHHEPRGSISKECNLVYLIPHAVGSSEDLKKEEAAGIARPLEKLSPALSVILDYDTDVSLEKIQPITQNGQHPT
Sequence of Muscarinic acetylcholine receptor M3 (Homo sapiens) (P20309 whole entry, looked up): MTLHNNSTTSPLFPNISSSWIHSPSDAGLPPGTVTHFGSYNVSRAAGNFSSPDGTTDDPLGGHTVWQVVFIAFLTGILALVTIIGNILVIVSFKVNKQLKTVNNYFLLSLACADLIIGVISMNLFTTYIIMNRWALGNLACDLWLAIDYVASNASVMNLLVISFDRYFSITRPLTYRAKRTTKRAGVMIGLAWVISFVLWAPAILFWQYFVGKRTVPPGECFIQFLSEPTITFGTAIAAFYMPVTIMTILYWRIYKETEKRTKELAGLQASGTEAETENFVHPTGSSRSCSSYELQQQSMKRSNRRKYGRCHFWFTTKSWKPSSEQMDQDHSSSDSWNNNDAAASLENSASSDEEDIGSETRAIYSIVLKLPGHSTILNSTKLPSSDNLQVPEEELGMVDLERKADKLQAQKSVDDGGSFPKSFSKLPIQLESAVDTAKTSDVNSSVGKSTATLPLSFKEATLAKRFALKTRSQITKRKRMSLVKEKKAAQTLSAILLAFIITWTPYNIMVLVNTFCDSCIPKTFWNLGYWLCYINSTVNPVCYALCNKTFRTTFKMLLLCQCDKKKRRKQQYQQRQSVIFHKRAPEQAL
Sequence of 5-hydroxytryptamine receptor 1E (Homo sapiens) (P28566 whole entry): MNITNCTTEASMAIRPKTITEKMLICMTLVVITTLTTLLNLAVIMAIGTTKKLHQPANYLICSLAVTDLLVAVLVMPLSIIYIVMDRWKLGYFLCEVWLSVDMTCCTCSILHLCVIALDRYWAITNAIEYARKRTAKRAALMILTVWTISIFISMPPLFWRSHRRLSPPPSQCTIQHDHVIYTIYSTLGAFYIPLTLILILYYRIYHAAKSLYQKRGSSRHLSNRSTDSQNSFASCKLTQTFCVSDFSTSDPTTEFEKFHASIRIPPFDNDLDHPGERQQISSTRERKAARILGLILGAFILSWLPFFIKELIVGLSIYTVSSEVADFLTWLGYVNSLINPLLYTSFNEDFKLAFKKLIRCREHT
Sequence of D(1B) dopamine receptor (Homo sapiens) (P21918 whole entry): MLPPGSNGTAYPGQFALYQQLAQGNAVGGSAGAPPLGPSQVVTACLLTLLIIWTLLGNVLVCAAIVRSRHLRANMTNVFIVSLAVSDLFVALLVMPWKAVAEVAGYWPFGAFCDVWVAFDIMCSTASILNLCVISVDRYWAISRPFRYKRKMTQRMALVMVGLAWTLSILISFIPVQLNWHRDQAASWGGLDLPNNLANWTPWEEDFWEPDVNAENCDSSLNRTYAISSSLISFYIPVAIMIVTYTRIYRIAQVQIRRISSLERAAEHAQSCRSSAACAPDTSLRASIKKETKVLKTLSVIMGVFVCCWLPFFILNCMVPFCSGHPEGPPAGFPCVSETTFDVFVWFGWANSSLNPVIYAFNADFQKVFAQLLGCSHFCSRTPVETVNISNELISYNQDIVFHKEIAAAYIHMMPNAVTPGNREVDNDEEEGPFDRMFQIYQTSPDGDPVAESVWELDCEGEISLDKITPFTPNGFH
Sequence of Histamine H3 receptor (Homo sapiens) (Q9Y5N1 whole entry): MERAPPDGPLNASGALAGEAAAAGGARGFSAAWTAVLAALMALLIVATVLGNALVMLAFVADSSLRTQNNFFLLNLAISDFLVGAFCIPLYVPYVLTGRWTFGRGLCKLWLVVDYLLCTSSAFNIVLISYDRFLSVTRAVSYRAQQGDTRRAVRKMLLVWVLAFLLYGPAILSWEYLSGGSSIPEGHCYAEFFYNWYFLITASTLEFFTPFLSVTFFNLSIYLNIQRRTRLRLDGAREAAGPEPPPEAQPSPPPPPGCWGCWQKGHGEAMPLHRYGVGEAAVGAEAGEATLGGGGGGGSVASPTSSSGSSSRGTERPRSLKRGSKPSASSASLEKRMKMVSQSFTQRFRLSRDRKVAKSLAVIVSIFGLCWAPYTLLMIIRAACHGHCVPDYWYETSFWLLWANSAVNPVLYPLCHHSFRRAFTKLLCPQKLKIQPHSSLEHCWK
Sequence of D(2) dopamine receptor (Homo sapiens) (P14416 whole entry): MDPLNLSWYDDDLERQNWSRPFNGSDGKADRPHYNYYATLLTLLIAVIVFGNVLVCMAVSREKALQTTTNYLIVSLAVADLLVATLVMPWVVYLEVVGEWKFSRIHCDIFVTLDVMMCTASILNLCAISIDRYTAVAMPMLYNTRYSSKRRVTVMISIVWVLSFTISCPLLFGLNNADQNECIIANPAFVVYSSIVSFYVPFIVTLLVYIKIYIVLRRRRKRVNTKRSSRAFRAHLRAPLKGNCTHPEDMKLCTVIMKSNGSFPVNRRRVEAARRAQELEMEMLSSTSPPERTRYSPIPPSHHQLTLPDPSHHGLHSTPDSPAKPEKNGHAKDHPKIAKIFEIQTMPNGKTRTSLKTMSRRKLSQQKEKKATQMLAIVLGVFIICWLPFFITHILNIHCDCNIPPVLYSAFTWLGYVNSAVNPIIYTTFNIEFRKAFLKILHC
Sequence of Sodium-dependent noradrenaline transporter (Homo sapiens) (P23975 whole entry): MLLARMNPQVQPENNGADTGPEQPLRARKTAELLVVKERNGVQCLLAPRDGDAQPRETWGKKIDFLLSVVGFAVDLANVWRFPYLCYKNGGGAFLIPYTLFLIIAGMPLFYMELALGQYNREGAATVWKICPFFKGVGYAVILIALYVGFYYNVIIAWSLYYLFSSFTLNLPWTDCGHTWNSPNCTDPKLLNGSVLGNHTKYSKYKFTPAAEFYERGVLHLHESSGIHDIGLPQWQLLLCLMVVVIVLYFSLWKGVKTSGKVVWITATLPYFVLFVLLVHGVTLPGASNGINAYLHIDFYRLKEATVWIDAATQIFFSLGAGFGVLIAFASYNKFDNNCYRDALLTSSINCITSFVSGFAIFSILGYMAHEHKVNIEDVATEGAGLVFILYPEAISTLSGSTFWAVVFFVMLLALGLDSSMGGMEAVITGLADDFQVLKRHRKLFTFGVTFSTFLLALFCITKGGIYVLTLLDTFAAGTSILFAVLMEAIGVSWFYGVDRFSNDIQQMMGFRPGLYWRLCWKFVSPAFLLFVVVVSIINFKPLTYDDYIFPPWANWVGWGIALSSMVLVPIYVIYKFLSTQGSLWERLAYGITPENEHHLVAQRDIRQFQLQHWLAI
Sequence of Histamine H4 receptor (Homo sapiens) (Q9H3N8 whole entry): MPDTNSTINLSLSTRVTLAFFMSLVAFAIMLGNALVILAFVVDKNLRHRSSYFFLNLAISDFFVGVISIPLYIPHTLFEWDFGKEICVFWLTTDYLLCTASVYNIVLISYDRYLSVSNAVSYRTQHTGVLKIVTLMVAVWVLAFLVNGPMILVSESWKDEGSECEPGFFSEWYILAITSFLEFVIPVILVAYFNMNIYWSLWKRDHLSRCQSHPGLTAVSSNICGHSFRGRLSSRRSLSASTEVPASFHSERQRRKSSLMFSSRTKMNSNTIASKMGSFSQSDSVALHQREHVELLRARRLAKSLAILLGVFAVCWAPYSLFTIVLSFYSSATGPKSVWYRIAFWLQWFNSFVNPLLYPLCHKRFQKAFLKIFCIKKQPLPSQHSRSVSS
Sequence of Mu-type opioid receptor (Homo sapiens) (P35372 whole entry): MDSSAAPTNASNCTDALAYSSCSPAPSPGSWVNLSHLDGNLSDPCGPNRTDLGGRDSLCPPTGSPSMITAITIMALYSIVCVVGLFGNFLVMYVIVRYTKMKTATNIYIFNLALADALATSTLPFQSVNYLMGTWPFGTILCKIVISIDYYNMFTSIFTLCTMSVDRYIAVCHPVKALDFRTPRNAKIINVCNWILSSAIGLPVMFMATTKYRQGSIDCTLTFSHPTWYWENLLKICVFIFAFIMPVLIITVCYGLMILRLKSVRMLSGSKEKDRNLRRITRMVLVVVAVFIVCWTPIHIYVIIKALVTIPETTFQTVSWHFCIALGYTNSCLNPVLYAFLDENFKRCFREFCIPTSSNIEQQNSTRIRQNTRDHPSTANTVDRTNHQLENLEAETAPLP
Sequence of Beta-3 adrenergic receptor (Homo sapiens) (P13945 whole entry, looked up): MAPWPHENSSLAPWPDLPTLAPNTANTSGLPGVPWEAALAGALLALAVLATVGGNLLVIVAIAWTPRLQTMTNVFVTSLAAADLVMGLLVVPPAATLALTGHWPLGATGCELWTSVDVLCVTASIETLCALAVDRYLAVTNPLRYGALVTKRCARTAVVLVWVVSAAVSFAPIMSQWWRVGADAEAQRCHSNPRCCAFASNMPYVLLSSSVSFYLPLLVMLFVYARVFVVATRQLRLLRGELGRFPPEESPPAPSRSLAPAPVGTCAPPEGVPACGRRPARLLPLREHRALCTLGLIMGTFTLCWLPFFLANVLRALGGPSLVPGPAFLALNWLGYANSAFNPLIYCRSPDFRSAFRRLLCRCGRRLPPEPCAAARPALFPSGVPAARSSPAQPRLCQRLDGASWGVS

For the compound `CCCCOc1ccc(-c2nn3c(C)cc(C)nc3c2CC(=O)N(CC)CC)cc1`, the inhibition in test [1], in [2], in test [3], in test [4], in test [5] and in test [6] was < 50% each time. Besides, the inhibition in test [7], in test [8], in test [9], in test [11], in [12] and in test [13] was < 50% throughout. In addition, the inhibition in [15], in test [16], in test [17], in test [18], in [19] and in test [20] was < 50% each time. Also, the inhibition (commonly the relative decrease from the control value, in per cent) in [21] is < 50%. For the same compound, the Ki – broadly, a dissociation constant, usually derived from enzyme kinetics or from competition with a known ligand – was 1.57 µM in test [10] and > 10 µM in test [14].

In the case of `C#CCOc1ccc(-c2nn3c(C)cc(C)nc3c2CC(=O)N(CC)CC)cc1`, the inhibition in test [1], in [2], in [3], in [4], in [5] and in [6] was < 50% throughout. Further, the inhibition in test [7], in [8], in [9], in test [11], in test [12] and in test [13] was < 50% throughout. Moreover, the inhibition in test [15], in [16], in test [17], in test [18], in test [19] and in test [20] was < 50% throughout. Moreover, the inhibition in test [22] and in [21] was < 50% throughout. For the same compound, the Ki in test [10] and in test [14] was > 10 µM each time.

For the compound `CCCOc1ccc(-c2nn3c(C)cc(C)nc3c2CC(=O)N(CC)CC)cc1`, the inhibition in [1], in [2], in test [3], in test [4], in [5] and in test [6] was < 50% throughout. The inhibition in test [7], in [8], in test [9], in test [11], in test [12] and in test [13] was < 50% each time. Also, the inhibition in [15], in test [16], in test [17], in [18], in [19] and in test [20] was < 50% throughout. Further, the inhibition in test [21] was < 50%. For the same compound, the Ki in [10] and in test [14] was > 10 µM throughout.

In the case of `CCOc1ccc(-c2nn3c(C)cc(C)nc3c2CC(=O)N(CC)CC)cc1`, the inhibition in [1], in [2], in test [3], in [4], in test [5] and in [6] was < 50% throughout. Also, the inhibition in [7], in test [8], in test [9], in test [11], in test [12] and in test [13] was < 50% each time. Further, the inhibition in test [15], in test [16], in test [17], in test [18], in [19] and in test [20] was < 50% throughout. Moreover, the inhibition in [22] and in test [21] was < 50% throughout. Further, the Ki in test [10] and in test [14] was > 10 µM throughout.
